Experimental data reported in patent US8247211B2, “Glycopeptide antibiotics” (American Cyanamid Company, priority 2001, dated 2012).
Values after ≈ are worked out from the molar mass of the structure shown.

Legend:
[1] = Anatomic pathology (heart and kidney histopathology) in mice; type: in vivo, CD-1 mice; conditions: 20 mg/kg intravenously daily for 9 days, microscopic histopathology on day 10
In short: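 Juvenile CD-1 mice (20 days old; 5 vehicle, 5 treated) received glycopeptide antibiotic 20 mg/kg i.v. daily for 9 days. Necropsied tissues formalin-fixed, paraffin-embedded, H&E stained and examined microscopically; findings graded slight to severe versus controls.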

[2] = system: Staphylococcus aureus-SMITH (GC 4543); experiment: Acute lethal infection in mice (ED50); type: in vivo; conditions: female CD-1 mice, intraperitoneal challenge, intravenous dose 30 min. after infection, 7 day survival ratios
In short: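 Lethal systemic infection model: female CD-1 mice, 20 ± 1-2 g, intraperitoneal challenge. Single intravenous treatment 30 min after infection; 7-day survival, pooled from 3 tests, gives ED50.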

[3] = system: Streptococcus sp.; experiment: In vitro antibacterial evaluation: minimum inhibitory concentration (MIC), broth dilution method; type: cell-based; conditions: 18 hours at 35° C.
In short: (§1)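 An MIC is reported for each organism as the least concentration giving inhibition, using broth dilution over 64-0.06 μg/mL with a 5×10^5 CFU/mL inoculum.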

[4] = system: Enterococcus sp.; experiment: as above; type: cell-based; conditions: 18 hours at 35° C.
In short: as §1

[5] = system: Staphylococcus sp.; experiment: as above; type: cell-based; conditions: 18 hours at 35° C.
In short: as §1

[6] = system: Escherichia coli; experiment: as above; type: cell-based; conditions: 18 hours at 35° C.
In short: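 NCCLS M7-A2 broth dilution; Muller-Hinton II […]; 5×10^5 CFU/mL; 64-0.06 μg/mL. MIC = lowest concentration with no growth.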

[7] = Streptococcus pneumoniae (ATCC 6301)
[8] = Streptococcus pneumoniae (GC 1894)
[9] = Streptococcus pneumoniae (GC 4565)
[10] = broth dilution, inoculum 5×10^5 CFU/mL
[11] = Enterococcus faecalis (ATCC 29212)
[12] = Enterococcus faecalis (GC 2242)
[13] = Enterococcus faecalis (GC 2691)
[14] = Enterococcus faecalis (GC 3059)
[15] = Enterococcus faecalis (GC 4552)
[16] = Enterococcus faecalis (GC 4553)
[17] = Enterococcus faecalis (GC 4554)
[18] = Enterococcus faecalis (GC 6189)

COc1ccc2cc(COCC3OC(OC4C(CO)OC(Oc5ccc(CC6NC(=O)C(C(C)c7ccccc7)NC(=O)CNC(=O)C(CO)NC(=O)C(C(O)C7CNC(=N)N7C7OC(CO)C(O)C(O)C7O)NC(=O)C(C(O)C7CNC(=N)N7)NC6=O)cc5)C(O)C4O)C(O)C(O)C3O)ccc2c1 (stereo not drawn) [Example 230, Cyclo[glycyl-β-methylphenylalanyl-O-[4-O-[6-O-[(6-methoxy-2-naphthyl)methyl]hexopyranosyl]hexopyranosyl]tyrosyl-3-(2-iminoimidazolidin-4-yl)seryl-3-(3-hexopyranosyl-2-iminoimidazolidin-4-yl)serylseryl]]
Anatomical Pathology (Day 10), Heart [1]: 0
Anatomical Pathology (Day 10), Kidney [1]: +++
median effective dose (ED50), Staphylococcus aureus-SMITH (GC 4543) [2]: 0.12 mg/kg
MIC Streptococcus agalactiae (GC 4564) ([3]; Streptococcus agalactiae (GC 4564)): 0.5 µg/mL (≈ 0.341 µM)
MIC Streptococcus pneumoniae (ATCC 6301) [3, 7]: 0.12 µg/mL (≈ 0.0819 µM)
MIC Streptococcus pneumoniae (GC 1894) [3, 8]: <0.06 µg/mL
MIC Streptococcus pneumoniae (GC 4565) [3, 9]: 0.12 µg/mL (≈ 0.0819 µM)
MIC Streptococcus pyogenes (GC 4563) ([3]; Streptococcus pyogenes (GC 4563)): 0.25 µg/mL (≈ 0.171 µM)
MIC Streptococcus agalactiae (GC 4564) [3, 10]: 0.5 µg/mL (≈ 0.341 µM)
MIC Streptococcus pneumoniae (ATCC 6301) [3, 10]: 0.12 µg/mL (≈ 0.0819 µM)
MIC Streptococcus pneumoniae (GC 1894) [3, 10]: <0.06 µg/mL
MIC Streptococcus pneumoniae (GC 4565) [3, 10]: 0.12 µg/mL (≈ 0.0819 µM)
MIC Streptococcus pyogenes (GC 4563) [3, 10]: 0.25 µg/mL (≈ 0.171 µM)
MIC Enterococcus avium (GC 4558) ([4]; Enterococcus avium (GC 4558)): 8 µg/mL (≈ 5.46 µM)
MIC Enterococcus faecalis (ATCC 29212) [4, 11]: 8 µg/mL (≈ 5.46 µM)
MIC Enterococcus faecalis (GC 2242) [4, 12]: 8 µg/mL (≈ 5.46 µM)
MIC Enterococcus faecalis (GC 2691) [4, 13]: 4 µg/mL (≈ 2.73 µM)
MIC Enterococcus faecalis (GC 3059) [4, 14]: 8 µg/mL (≈ 5.46 µM)
MIC Enterococcus faecalis (GC 4552) [4, 15]: 8 µg/mL (≈ 5.46 µM)
MIC Enterococcus faecalis (GC 4553) [4, 16]: 8 µg/mL (≈ 5.46 µM)
MIC Enterococcus faecalis (GC 4554) [4, 17]: 8 µg/mL (≈ 5.46 µM)
MIC Enterococcus faecalis (GC 6189) [4, 18]: 4 µg/mL (≈ 2.73 µM)
MIC Enterococcus faecium (GC 2243) ([4]; Enterococcus faecium (GC 2243)): 8 µg/mL (≈ 5.46 µM)
MIC Enterococcus faecium (GC 4556) ([4]; Enterococcus faecium (GC 4556)): 8 µg/mL (≈ 5.46 µM)
MIC Enterococcus faecium (GC 4557) ([4]; Enterococcus faecium (GC 4557)): 2 µg/mL (≈ 1.36 µM)
MIC Enterococcus avium (GC 4558) [4, 10]: 8 µg/mL (≈ 5.46 µM)
MIC Enterococcus faecalis (ATCC 29212) [4, 10]: 8 µg/mL (≈ 5.46 µM)
MIC Enterococcus faecalis (GC 2242) [4, 10]: 8 µg/mL (≈ 5.46 µM)
MIC Enterococcus faecalis (GC 2691) [4, 10]: 4 µg/mL (≈ 2.73 µM)
MIC Enterococcus faecalis (GC 3059) [4, 10]: 8 µg/mL (≈ 5.46 µM)
MIC Enterococcus faecalis (GC 4552) [4, 10]: 8 µg/mL (≈ 5.46 µM)
MIC Enterococcus faecalis (GC 4553) [4, 10]: 8 µg/mL (≈ 5.46 µM)
MIC Enterococcus faecalis (GC 4554) [4, 10]: 8 µg/mL (≈ 5.46 µM)
MIC Enterococcus faecalis (GC 6189) [4, 10]: 4 µg/mL (≈ 2.73 µM)
MIC Enterococcus faecium (GC 2243) [4, 10]: 8 µg/mL (≈ 5.46 µM)
MIC Enterococcus faecium (GC 4556) [4, 10]: 8 µg/mL (≈ 5.46 µM)
MIC Enterococcus faecium (GC 4557) [4, 10]: 2 µg/mL (≈ 1.36 µM)
MIC Coagulase Negative Staphylococcus (GC 4547) [5]: 1 µg/mL (≈ 0.682 µM)
MIC Coagulase Negative Staphylococcus (GC 4548) ([5]; Coagulase Negative Staphylococcus (GC 4548)): 0.5 µg/mL (≈ 0.341 µM)
MIC Coagulase Negative Staphylococcus (GC 4549) ([5]; Coagulase Negative Staphylococcus (GC 4549)): 1 µg/mL (≈ 0.682 µM)
MIC Coagulase Negative Staphylococcus (GC 4551) ([5]; Coagulase Negative Staphylococcus (GC 4551)): 2 µg/mL (≈ 1.36 µM)
MIC Coagulase Negative Staphylococcus (GC 6257) ([5]; Coagulase Negative Staphylococcus (GC 6257)): 0.5 µg/mL (≈ 0.341 µM)
MIC Staphylococcus aureus (ATCC 29213) [5]: 2 µg/mL (≈ 1.36 µM)
MIC Staphylococcus aureus (GC 1131) [5]: 2 µg/mL (≈ 1.36 µM)
MIC Staphylococcus aureus (GC 3051) [5]: 2 µg/mL (≈ 1.36 µM)
MIC Staphylococcus aureus (GC 3053) [5]: 2 µg/mL (≈ 1.36 µM)
MIC Staphylococcus aureus (GC 4541) [5]: 1 µg/mL (≈ 0.682 µM)
MIC Staphylococcus aureus (GC 4542) ([5]; Staphylococcus aureus (GC 4542)): 2 µg/mL (≈ 1.36 µM)
MIC Staphylococcus aureus (GC 4544) [5]: 2 µg/mL (≈ 1.36 µM)
MIC Staphylococcus aureus (GC 4545) [5]: 1 µg/mL (≈ 0.682 µM)
MIC Staphylococcus aureus-SMITH (GC 4543) [5]: 1 µg/mL (≈ 0.682 µM)
MIC Staphylococcus haemolyticus (GC 4546) ([5]; Staphylococcus haemolyticus (GC 4546)): 1 µg/mL (≈ 0.682 µM)
MIC Escherichia coli (ATCC 25922) [6]: 64 µg/mL (≈ 43.7 µM)
MIC Escherichia coli (GC 4559) [6]: >64 µg/mL
MIC Escherichia coli (GC 4560) ([6]; Escherichia coli (GC 4560)): 1 µg/mL (≈ 0.682 µM)

COc1ccc2cc(COC3C(CO)OC(OC4C(CO)OC(Oc5ccc(CC6NC(=O)C(C(C)c7ccccc7)NC(=O)CNC(=O)C(CO)NC(=O)C(C(O)C7CNC(=N)N7C7OC(CO)C(O)C(O)C7O)NC(=O)C(C(O)C7CNC(=N)N7)NC6=O)cc5)C(O)C4O)C(O)C3O)ccc2c1 (stereo not drawn) [Example 230a, Cyclo[glycyl-β-methylphenylalanyl-O-[4-O-[4-O-[(6-methoxy-2-naphthyl)methyl]hexopyranosyl]hexopyranosyl]tyrosyl-3-(2-iminoimidazolidin-4-yl)seryl-3-(3-hexopyranosyl-2-iminoimidazolidin-4-yl)serylseryl]]
Anatomical Pathology (Day 10), Heart [1]: 0
Anatomical Pathology (Day 10), Kidney [1]: +
median effective dose (ED50), Staphylococcus aureus-SMITH (GC 4543) [2]: 0.06 mg/kg
MIC Streptococcus pneumoniae (ATCC 6301) [3, 7]: <0.06 µg/mL
MIC Streptococcus pneumoniae (GC 1894) [3, 8]: <0.06 µg/mL
MIC Streptococcus pneumoniae (GC 4565) [3, 9]: <0.06 µg/mL
MIC Streptococcus pneumoniae (ATCC 6301) [3, 10]: <0.06 µg/mL
MIC Streptococcus pneumoniae (GC 1894) [3, 10]: <0.06 µg/mL
MIC Streptococcus pneumoniae (GC 4565) [3, 10]: <0.06 µg/mL
MIC Enterococcus avium (GC 4558) ([4]; Enterococcus avium (GC 4558)): 2 to 4 µg/mL
MIC Enterococcus faecalis (ATCC 29212) [4, 11]: 2 to 4 µg/mL
MIC Enterococcus faecalis (GC 2242) [4, 12]: 2 to 4 µg/mL
MIC Enterococcus faecalis (GC 2691) [4, 13]: 2 to 4 µg/mL
MIC Enterococcus faecalis (GC 3059) [4, 14]: 2 to 4 µg/mL
MIC Enterococcus faecalis (GC 4552) [4, 15]: 2 to 4 µg/mL
MIC Enterococcus faecalis (GC 4553) [4, 16]: 2 to 4 µg/mL
MIC Enterococcus faecalis (GC 4554) [4, 17]: 2 to 4 µg/mL
MIC Enterococcus faecalis (GC 6189) [4, 18]: 1 to 4 µg/mL
MIC Enterococcus faecium (GC 2243) ([4]; Enterococcus faecium (GC 2243)): 2 to 4 µg/mL
MIC Enterococcus faecium (GC 4556) ([4]; Enterococcus faecium (GC 4556)): 2 to 4 µg/mL
MIC Enterococcus faecium (GC 4557) ([4]; Enterococcus faecium (GC 4557)): 1 to 2 µg/mL
MIC Enterococcus avium (GC 4558) [4, 10]: 2 to 4 µg/mL
MIC Enterococcus faecalis (ATCC 29212) [4, 10]: 2 to 4 µg/mL
MIC Enterococcus faecalis (GC 2242) [4, 10]: 2 to 4 µg/mL
MIC Enterococcus faecalis (GC 2691) [4, 10]: 2 to 4 µg/mL
MIC Enterococcus faecalis (GC 3059) [4, 10]: 2 to 4 µg/mL
MIC Enterococcus faecalis (GC 4552) [4, 10]: 2 to 4 µg/mL
MIC Enterococcus faecalis (GC 4553) [4, 10]: 2 to 4 µg/mL
MIC Enterococcus faecalis (GC 4554) [4, 10]: 2 to 4 µg/mL
MIC Enterococcus faecalis (GC 6189) [4, 10]: 1 to 4 µg/mL
MIC Enterococcus faecium (GC 2243) [4, 10]: 2 to 4 µg/mL
MIC Enterococcus faecium (GC 4556) [4, 10]: 2 to 4 µg/mL
MIC Enterococcus faecium (GC 4557) [4, 10]: 1 to 2 µg/mL
MIC Coagulase Negative Staphylococcus (GC 4547) [5]: 0.5 to 2 µg/mL
MIC Staphylococcus aureus (ATCC 29213) [5]: 1 to 2 µg/mL
MIC Staphylococcus aureus (GC 1131) [5]: 0.5 to 2 µg/mL
MIC Staphylococcus aureus (GC 3051) [5]: 1 to 2 µg/mL
MIC Staphylococcus aureus (GC 3053) [5]: 1 to 2 µg/mL
MIC Staphylococcus aureus (GC 4541) [5]: 0.5 to 2 µg/mL
MIC Staphylococcus aureus (GC 4544) [5]: 1 to 2 µg/mL
MIC Staphylococcus aureus (GC 4545) [5]: 0.5 to 1 µg/mL
MIC Staphylococcus aureus-SMITH (GC 4543) [5]: 0.5 to 2 µg/mL
MIC Escherichia coli (ATCC 25922) [6]: 32 µg/mL (≈ 21.8 µM)
MIC Escherichia coli (GC 4559) [6]: 32 µg/mL (≈ 21.8 µM)
